Tests used:
[1] = system: HeLa cells; test: Cell Viability Assay, HeLa cells with MMS (CellTiter-Glo); assay type: cell-based, human; settings: 10 μM, 72 hours
Description: Cell Viability Assay. HeLa cells were seeded in 96 well plates with a density of 2,000 cells/well. […] Cell viability was determined using a CellTiter-Glo luminescence kit (Promega). Briefly, cells were balanced for 30 min at RT. One hundred microliters of the CellTiter-Glo reagent was added into each well and the cells were incubated for 10 min. The luminescence was measured using a Synergy microplate reader (Bio-Tek). The ATP level in untreated cells was defined as 100%. The viability of the treated cells was defined as the percentage of the ATP level in treated cells, compared to that in the untreated cells.

[2] = target: ZFP91 (Homo sapiens, UniProt Q96JP5+Q96SW2); test: TMT quantitative proteomics in BT-549 cells, ZFP91; assay type: cell-based; set-up: host or cells: HeLa; BT-549; settings: iRucaparib 5 μM, 24 hours
Sequence of ZFP91 (Q16531 2-1140): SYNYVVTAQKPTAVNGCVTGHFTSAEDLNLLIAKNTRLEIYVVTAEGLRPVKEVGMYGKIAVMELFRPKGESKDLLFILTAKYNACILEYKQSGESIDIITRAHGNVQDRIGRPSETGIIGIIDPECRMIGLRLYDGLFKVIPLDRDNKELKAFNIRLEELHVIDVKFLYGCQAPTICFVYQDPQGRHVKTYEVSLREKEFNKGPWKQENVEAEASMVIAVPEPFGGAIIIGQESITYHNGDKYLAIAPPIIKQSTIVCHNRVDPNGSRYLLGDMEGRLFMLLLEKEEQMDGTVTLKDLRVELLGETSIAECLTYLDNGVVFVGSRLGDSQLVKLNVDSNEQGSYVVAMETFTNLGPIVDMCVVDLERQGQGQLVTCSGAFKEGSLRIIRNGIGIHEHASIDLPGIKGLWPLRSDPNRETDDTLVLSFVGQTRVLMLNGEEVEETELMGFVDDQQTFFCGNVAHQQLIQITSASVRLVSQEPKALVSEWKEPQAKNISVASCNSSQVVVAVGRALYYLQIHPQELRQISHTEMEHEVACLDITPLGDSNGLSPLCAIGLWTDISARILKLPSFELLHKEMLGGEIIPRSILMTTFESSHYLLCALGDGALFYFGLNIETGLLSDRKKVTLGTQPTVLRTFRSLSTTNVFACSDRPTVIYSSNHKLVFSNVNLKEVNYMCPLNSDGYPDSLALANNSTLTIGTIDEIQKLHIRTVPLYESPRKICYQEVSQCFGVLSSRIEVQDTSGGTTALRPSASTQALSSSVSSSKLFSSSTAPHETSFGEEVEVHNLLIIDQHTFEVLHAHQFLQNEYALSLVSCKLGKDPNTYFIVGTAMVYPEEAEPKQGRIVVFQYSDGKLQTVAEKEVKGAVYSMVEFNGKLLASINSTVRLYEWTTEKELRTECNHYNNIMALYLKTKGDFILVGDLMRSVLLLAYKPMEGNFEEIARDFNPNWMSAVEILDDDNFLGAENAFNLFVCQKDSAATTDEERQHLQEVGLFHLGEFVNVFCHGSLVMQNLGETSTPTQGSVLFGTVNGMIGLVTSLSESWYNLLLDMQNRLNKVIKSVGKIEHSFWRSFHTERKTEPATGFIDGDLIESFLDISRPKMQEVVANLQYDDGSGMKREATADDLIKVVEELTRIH
Sequence of ZFP91 (Q96SW2 whole entry): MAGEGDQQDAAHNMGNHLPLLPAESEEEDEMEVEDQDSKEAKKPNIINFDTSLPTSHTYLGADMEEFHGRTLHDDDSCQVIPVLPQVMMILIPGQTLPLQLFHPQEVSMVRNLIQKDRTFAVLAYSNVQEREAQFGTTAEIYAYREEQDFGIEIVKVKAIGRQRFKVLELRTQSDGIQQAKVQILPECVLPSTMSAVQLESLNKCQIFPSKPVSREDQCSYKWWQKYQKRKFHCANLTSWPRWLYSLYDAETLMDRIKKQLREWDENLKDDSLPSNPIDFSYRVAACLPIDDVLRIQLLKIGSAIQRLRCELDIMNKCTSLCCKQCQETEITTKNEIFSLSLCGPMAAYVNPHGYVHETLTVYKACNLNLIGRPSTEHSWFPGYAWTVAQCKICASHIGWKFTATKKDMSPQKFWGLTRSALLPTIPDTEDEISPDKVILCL
Sequence of ZFP91 (Q96JP5 2-570): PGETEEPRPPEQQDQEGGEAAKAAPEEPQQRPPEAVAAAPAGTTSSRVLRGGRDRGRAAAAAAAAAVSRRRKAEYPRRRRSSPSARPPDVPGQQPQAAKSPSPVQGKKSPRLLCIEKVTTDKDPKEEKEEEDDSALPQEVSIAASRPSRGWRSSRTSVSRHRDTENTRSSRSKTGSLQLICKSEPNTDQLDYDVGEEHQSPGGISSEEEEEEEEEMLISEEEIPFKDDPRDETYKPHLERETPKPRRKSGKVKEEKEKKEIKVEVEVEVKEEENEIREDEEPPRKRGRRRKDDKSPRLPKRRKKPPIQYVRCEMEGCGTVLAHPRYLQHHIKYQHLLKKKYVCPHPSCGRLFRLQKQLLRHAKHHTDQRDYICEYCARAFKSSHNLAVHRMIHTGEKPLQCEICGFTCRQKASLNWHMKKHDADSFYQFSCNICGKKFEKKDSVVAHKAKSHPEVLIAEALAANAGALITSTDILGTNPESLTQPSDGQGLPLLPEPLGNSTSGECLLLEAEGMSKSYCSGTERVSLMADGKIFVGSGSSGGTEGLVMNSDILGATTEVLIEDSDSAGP
Description: Quantitative Mass Spectrometry. […] Two biological replicate samples were prepared for each treatment condition. Cells were washed with cold PBS and lysed using the SDS lysis buffer. Protein concentrations were determined by the BCA assay (Thermo Fisher Scientific). For each sample, 500 μg of protein was used for the subsequent TMT experiments^34.
For the TMT experiments, proteins were reduced with 2 mM DTT for 10 min and alkylated with 50 mM iodoacetamide for 30 min in dark. Proteins were then extracted using methanol-chloroform precipitation. Protein pellets were dissolved in 400 μL 8 M Urea buffer (8 M urea, 50 mM Tris-HCl, 10 mM EDTA, pH 7.5) and were digested by Lys-C (Wako, at a 1:100 enzyme/protein ratio) for 2 hours at RT. The urea concentration was then reduced to 2 M using freshly made 100 mM ammonium bicarbonate solution. […]
Samples were desalted and fractioned by bRPLC (basic pH reversed phase HPLC) on a ZORBAX 300 Extend-C18 column (Narrow Bore RR 2.1 mm×100 mm, 3.5 μm particle size, 300 Å pore size). […] Samples were then analyzed on an Orbitrap Elite mass spectrometer (Thermo Fisher Scientific) using a top 15 HCD (higher-energy collisional dissociation) method.
The maximum intensity of each reporter ion was extracted. For each reporter ion channel, the observed signal-to-noise ratio was summed across all quantified proteins and was normalized.

CN(CCCCc1cn(CCOCCOCCOCCNc2cccc3c2C(=O)N(C2CCC(=O)NC2=O)C3=O)nn1)Cc1ccc(-c2[nH]c3cc(F)cc4c3c2CCNC4=O)cc1 (centres unmarked) [iRucaparib, Rucaparib-Triazole-PEG3-Pomalidomide]
cell death in combination with MMS, compared to MMS alone [1]: only resulted in a moderate increase in cell death compared to MMS alone | ZFP91 decrease [2]: ~3 fold

From patent publication US20220098196A1, “TRAPPING-FREE PARP INHIBITORS” (The Board of Regents of the University of Texas System, priority 2019, published 2022)
